Assay results: PubChem BioAssay (NCI)
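Where inhibition never reached the appropriate level, the endpoint shown equals the highest concentration tested. Otherwise, values were interpolated linearly from a five-concentration, 48-hour dose response in 96-well plates. TGI: concentration producing complete growth inhibition.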

Key:
Assay in all cases: NCI anticancer screen, dose series, 48 h
[1] = system: HL-60(TB) leukemia
[2] = system: SF-295 CNS
[3] = system: SN12C renal
[4] = system: EKVX NSCLC
[5] = system: NCI-H226 lung
[6] = system: MDA-MB-231 breast
[7] = system: PC-3 prostate
[8] = system: HCC-2998 colon
[9] = system: U251 CNS
[10] = system: MDA-N
[11] = system: NCI-H522 lung
[12] = system: COLO 205 colon
[13] = system: MOLT-4 leukemia

Structure (SMILES)	TGI [1]	TGI [2]	TGI [3]	TGI [4]	TGI [5]	TGI [6]	TGI [7]	TGI [8]	TGI [9]	TGI [10]	TGI [11]	TGI [12]	TGI [13]
Cc1c(C(=O)O)c2cc3ccccc3cc2c(=O)n1C	> 10 µM	> 10 µM	> 10 µM	> 10 µM	> 10 µM	> 10 µM	> 10 µM	> 10 µM	> 10 µM	> 10 µM	> 10 µM		
CC(=O)OCC12C(OC(C)=O)C[C@@H](C)C3(CC(c4ccoc4)OC3=O)C1CCC(O)C21CO1 (some centres not stated)	> 100 µM	> 100 µM	> 100 µM		> 100 µM	> 100 µM	> 100 µM	> 100 µM	> 100 µM	> 100 µM	> 100 µM	> 100 µM	> 100 µM
Cc1c[nH]c(C(=O)O)c1-c1ccc2c(-c3ccccc3)nc3ccccc3n12		71.1 µM	> 100 µM	> 100 µM	57.8 µM	95 µM	> 100 µM	56.9 µM	> 100 µM	48.4 µM	60.6 µM	> 100 µM	94.8 µM
Cc1ccc2c(=O)c(-c3nnc(N)s3)c[nH]c2n1	> 100 µM	> 100 µM	> 100 µM	> 100 µM	> 100 µM	> 100 µM	> 100 µM		> 100 µM	> 100 µM	> 100 µM	> 100 µM	> 100 µM
Nc1nc(NNc2ccc(Cl)c(Cl)c2)cc(=O)[nH]1	64.4 µM	> 100 µM	> 100 µM	> 100 µM	> 100 µM	> 100 µM	> 100 µM	44.7 µM	68.3 µM	> 100 µM		61.1 µM	90.3 µM
CCn1c(=O)ccc2ccc(N(CCO)CCO)nc21		> 100 µM	> 100 µM	> 100 µM	> 100 µM	> 100 µM	> 100 µM	> 100 µM	> 100 µM	> 100 µM	> 100 µM	> 100 µM	> 100 µM
CN(C)C=Nc1cccc2cnccc12	> 100 µM	> 100 µM	> 100 µM	> 100 µM	> 100 µM	> 100 µM	> 100 µM		> 100 µM	> 100 µM	> 100 µM	> 100 µM	> 100 µM
CC(C)CC(=O)NC(NC(C)C)(C(F)(F)F)C(F)(F)F	> 100 µM		> 100 µM	> 100 µM	> 100 µM	> 100 µM	> 100 µM	> 100 µM	> 100 µM	> 100 µM	> 100 µM	> 100 µM	> 100 µM
COC(=O)C(Cc1ccccc1I)C1=CCC2(CC1)OCCO2 (configuration not stated)	41.5 µM	> 100 µM		> 100 µM	> 100 µM	> 100 µM	93.8 µM	> 100 µM	> 100 µM	67.4 µM	53.7 µM	63 µM	56.8 µM
C=C1CC(Cn2cc(C)c(=O)[nH]c2=O)(c2ccc(-c3ccccc3)cc2)OC1=O (configuration not stated)		14.2 µM	8.26 µM	22.1 µM	35.5 µM	5.16 µM	5.31 µM	5.23 µM	16.1 µM	2.75 µM	3.59 µM	2.89 µM	2.8 µM
Cc1ccc(-n2c(Cn3nnc(-c4cccnc4)n3)nn(C3OC(COC(=O)c4ccccc4)C(OC(=O)c4ccccc4)C3OC(=O)c3ccccc3)c2=S)cc1 (configuration not stated)		> 100 µM	> 100 µM	> 100 µM	> 100 µM	> 100 µM	> 100 µM	> 100 µM	> 100 µM	> 100 µM	> 100 µM	> 100 µM	> 100 µM
CCCCCC(=O)OCC1(CO)C/C(=C\CC(C(C)C)C(C)C)C(=O)O1 (configuration not stated)		> 100 µM	> 100 µM	> 100 µM	> 100 µM	> 100 µM	> 100 µM	> 100 µM	85.3 µM	> 100 µM	81.3 µM	53.5 µM	61.8 µM
Cc1cc2c(cc1C)[n+](=O)c(N1CCN(c3ccc([N+](=O)[O-])cc3)CC1)c(C#N)n2[O-]	> 100 µM	37.8 µM	> 100 µM	> 100 µM	> 100 µM	78.1 µM	> 100 µM	> 100 µM	80.9 µM	> 100 µM	88.3 µM	> 100 µM	
COC(=O)/C=C1/N=C(N(C)/N=C/c2ccccc2)NC1=O	> 100 µM	> 100 µM	> 100 µM	> 100 µM		> 100 µM	> 100 µM	> 100 µM		> 100 µM	> 100 µM	> 100 µM	> 100 µM
CC(=O)O[C@H]1CC[C@@]2(C)C(=CC[C@@H]3[C@@H]2CC[C@]2(C)C(=N/O)/C(=C/c4ccc([N+](=O)[O-])cc4)C[C@@H]32)C1	66.1 µM	20.7 µM	87.3 µM		67.7 µM	50.1 µM	> 100 µM			> 100 µM	8.94 µM	10 µM	> 100 µM
C#CCOC(=O)C(N)CSSCC(N)C(=O)O (configuration not stated)	> 100 µM		> 100 µM	> 100 µM	> 100 µM	> 100 µM	> 100 µM	> 100 µM	> 100 µM	> 100 µM	> 100 µM	> 100 µM	> 100 µM
CCN1CC2=C(NC(=S)NC2c2cc(OC)c(OC)c(OC)c2)/C(=C/c2cc(OC)c(OC)c(OC)c2)C1 (configuration not stated)	56.7 µM	> 100 µM		> 100 µM	> 100 µM	> 100 µM	> 100 µM	88.8 µM	> 100 µM	> 100 µM	55.9 µM	52.9 µM	> 100 µM
c1ccc2c3c([nH]c2c1)C1c2[nH]c4ccccc4c2CCN1CC3	66.5 µM	34.3 µM	32.6 µM	20.2 µM	37.6 µM	36.6 µM	27.1 µM	25.9 µM		35.6 µM	28.6 µM	35.2 µM	42.1 µM
O=C(N/N=C1/C(=O)c2c3ccccc3cc3cccc1c23)c1cccc(Cl)c1	> 100 µM		> 100 µM		> 100 µM	> 100 µM	> 100 µM	> 100 µM	> 100 µM	> 100 µM		> 100 µM	> 100 µM
